ChEMBL document CHEMBL4342498, “Design and Discovery of an Orally Efficacious Spiroindolinone-Based Tankyrase Inhibitor for the Treatment of Colon Cancer” (J Med Chem, 2020)
≈ marks a conversion by molar mass, not a printed value.

Tests used:
[1] = target: T1, Poly [ADP-ribose] polymerase tankyrase-2 (Homo sapiens, UniProt Q9H2K2); experiment: Inhibition of recombinant human N-terminal TEV cleavage site-fused/FLAG-poly his-tagged TNKS2 ARC5-SAM-PARP domain (613 to 1166 residues) expressed in Escherichia coli assessed as reduction in auto-PARylation preincubated for 10 mins followed by biotinylated-NAD+ addition and measured after 45 mins by ELISA
T1 sequence (Q9H2K2 whole entry): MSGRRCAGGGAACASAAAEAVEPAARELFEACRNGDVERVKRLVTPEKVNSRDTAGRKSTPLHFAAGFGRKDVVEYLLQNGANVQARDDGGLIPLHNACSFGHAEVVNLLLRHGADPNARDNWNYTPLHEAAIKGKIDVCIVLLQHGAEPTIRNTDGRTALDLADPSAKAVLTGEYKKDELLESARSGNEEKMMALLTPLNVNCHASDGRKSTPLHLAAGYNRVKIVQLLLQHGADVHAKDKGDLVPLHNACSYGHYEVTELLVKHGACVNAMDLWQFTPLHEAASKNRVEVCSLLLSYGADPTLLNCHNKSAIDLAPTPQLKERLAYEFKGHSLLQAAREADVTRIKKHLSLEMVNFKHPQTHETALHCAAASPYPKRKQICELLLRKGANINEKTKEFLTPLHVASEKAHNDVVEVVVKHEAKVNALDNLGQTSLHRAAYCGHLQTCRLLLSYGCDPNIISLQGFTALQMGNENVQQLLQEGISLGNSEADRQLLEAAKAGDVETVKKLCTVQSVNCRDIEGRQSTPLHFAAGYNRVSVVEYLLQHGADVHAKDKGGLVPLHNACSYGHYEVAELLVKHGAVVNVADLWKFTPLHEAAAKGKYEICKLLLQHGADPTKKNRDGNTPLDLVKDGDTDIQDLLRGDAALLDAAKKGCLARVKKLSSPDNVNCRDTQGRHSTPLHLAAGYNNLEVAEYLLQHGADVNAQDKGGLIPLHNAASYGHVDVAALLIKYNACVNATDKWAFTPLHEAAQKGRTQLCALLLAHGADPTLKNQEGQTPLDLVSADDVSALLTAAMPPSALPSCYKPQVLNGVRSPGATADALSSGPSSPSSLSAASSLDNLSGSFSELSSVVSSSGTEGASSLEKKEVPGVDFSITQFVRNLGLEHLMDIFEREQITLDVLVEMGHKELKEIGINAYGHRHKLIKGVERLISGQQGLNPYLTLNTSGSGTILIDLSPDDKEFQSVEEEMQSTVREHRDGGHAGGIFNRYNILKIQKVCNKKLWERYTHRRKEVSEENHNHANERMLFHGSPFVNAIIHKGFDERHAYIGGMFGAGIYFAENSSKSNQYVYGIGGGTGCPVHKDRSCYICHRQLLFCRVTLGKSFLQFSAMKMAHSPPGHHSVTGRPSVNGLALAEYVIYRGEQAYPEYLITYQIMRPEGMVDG

[2] = test system: COLO 320DM; experiment: Antiproliferative activity against human COLO320DM cells assessed as inhibition of cell growth measured after 4 days by CellTiter-Glo assay; type: functional; conditions: 96 h
[3] = Stability in mouse liver microsomes assessed as parent compound remaining at 1 uM measured after 60 mins in presence of NADPH by LC-MS/MS analysis; type: ADME, Microsome; conditions: read-out: Stability
[4] = Stability in human liver microsomes assessed as parent compound remaining at 1 uM measured after 60 mins in presence of NADPH by LC-MS/MS analysis; type: ADME, Microsome; conditions: read-out: Stability
[5] = test system: MDR1; experiment: Efflux ratio of permeability across basolateral to apical side over apical to basolateral side in MDCK2-MDR1 cells; type: ADME, cell-based, Canis lupus familiaris; conditions: dog, MDCK-MDR1
[6] = Efflux ratio of permeability across basolateral to apical side over apical to basolateral side in MDCK2 cells; type: ADME, cell-based, Canis lupus familiaris, MDCK-II; conditions: dog, mdck
[7] = Net efflux ratio of permeability across basolateral to apical side over apical to basolateral side in MDCK2-MDR1 cells to MDCK2 cells; type: ADME, cell-based, Canis lupus familiaris; conditions: dog, mdck
[8] = target: T2, Poly [ADP-ribose] polymerase tankyrase-1 (Homo sapiens, UniProt O95271)
T2 sequence (O95271 whole entry): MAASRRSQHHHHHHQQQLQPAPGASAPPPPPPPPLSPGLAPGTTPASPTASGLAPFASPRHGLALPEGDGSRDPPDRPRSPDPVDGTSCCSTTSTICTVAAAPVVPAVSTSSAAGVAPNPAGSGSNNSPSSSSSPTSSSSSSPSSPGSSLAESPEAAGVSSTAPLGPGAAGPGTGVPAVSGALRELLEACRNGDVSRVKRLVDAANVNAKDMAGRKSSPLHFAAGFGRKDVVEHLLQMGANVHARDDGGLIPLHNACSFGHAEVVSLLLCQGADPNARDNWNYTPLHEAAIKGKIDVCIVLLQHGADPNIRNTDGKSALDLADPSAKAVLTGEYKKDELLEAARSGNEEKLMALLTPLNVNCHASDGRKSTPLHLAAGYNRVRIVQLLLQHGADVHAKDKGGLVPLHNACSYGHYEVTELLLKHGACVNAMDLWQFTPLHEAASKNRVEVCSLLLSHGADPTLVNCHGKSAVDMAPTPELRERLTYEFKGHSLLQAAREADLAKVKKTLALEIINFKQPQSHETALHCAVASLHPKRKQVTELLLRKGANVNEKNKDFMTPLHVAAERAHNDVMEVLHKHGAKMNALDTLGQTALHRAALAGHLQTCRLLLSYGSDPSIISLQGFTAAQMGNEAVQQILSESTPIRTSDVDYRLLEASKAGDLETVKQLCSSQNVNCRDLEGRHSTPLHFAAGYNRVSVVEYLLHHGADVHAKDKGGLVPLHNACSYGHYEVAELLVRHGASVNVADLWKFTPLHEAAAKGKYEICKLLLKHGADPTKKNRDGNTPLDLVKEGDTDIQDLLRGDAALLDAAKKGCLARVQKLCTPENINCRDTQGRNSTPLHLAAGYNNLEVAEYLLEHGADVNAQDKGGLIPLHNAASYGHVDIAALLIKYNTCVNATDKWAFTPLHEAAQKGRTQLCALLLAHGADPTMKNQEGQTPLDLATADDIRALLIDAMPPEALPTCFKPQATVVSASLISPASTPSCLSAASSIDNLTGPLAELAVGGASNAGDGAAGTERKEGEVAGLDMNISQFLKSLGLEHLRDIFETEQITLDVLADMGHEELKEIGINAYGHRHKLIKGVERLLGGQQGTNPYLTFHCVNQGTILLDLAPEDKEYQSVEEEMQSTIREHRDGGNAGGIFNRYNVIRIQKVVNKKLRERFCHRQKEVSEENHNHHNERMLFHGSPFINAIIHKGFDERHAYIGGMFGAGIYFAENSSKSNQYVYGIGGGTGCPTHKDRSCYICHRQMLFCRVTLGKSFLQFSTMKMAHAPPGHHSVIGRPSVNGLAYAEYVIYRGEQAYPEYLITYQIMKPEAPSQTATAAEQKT
Description: Inhibition of recombinant human N-terminal TEV cleavage site-fused/FLAG-poly his-tagged TNKS SAM-PARP domain (1024 to 1327 residues) expressed in Escherichia coli assessed as reduction in auto-PARylation preincubated for 10 mins followed by biotinylated-NAD+ addition and measured after 45 mins by ELISA

[9] = target: T3, Tankyrase 1/2 (Homo sapiens, UniProt Q9H2K2+O95271); conditions: hek293
T3 sequence (Q9H2K2 whole entry): T1 sequence (Q9H2K2 whole entry)
T3 sequence (O95271 whole entry): T2 sequence (O95271 whole entry)
Description: Inhibition of TNKS/TNKS2 (unknown origin) expressed in HEK293 cells assessed as reduction in Wnt-signaling measured after 24 hrs by TCF-luciferase reporter gene assay

[10] = target: T3, Tankyrase 1/2
Description: Inhibition of TNKS/TNKS2 (unknown origin) expressed in human DLD1 cells assessed as reduction in Wnt-signaling measured after 24 hrs by TCF-luciferase reporter gene assay

[11] = physchem; conditions: phosphate buffered saline, pH 7.4

IC50 [1] [nM]	GI50 [2] [nM]	remaining at 1 h, 1 µM [3] [%]	remaining at 1 h, 1 µM [4] [%]	efflux ratio [5]	efflux ratio [6]	Ratio [7]	IC50 [8] [nM]	IC50 [9] [nM]	IC50 [10] [nM]	solubility at 1 h, 200 µM [11] [µg/mL]	Structure (SMILES)
11.7	50	0.1	1.8	4.8	1.3	3.7	10.3	0.3	3	6.3 (≈ 13.7 µM)	COCCN1C(=O)C2(CCN(c3nc4c(c(=O)[nH]3)CCCN4C)CC2)c2c(F)cc(F)cc21
21.2	660	60.3	22.4	11.7	4.6	2.5	6.1	0.1	2.7	102 (≈ 201 µM)	CN1CCC(Oc2cc(F)c3c(c2)N(C)C(=O)C32CCN(c3nc4c(c(=O)[nH]3)CCCN4C)CC2)CC1
12.4	1080	100	61.5	21.9	7.1	3.1	11.1	0.4	6.6	100 (≈ 196 µM)	CN1CCCc2c1nc(N1CCC3(CC1)C(=O)N(C)c1cc(OCCN4CCCC4)cc(F)c13)[nH]c2=O
11.1	810	83.7	54.4	22.7	9.2	2.5	4.9	0.3	6.1	95 (≈ 196 µM)	CN(C)CCOc1cc(F)c2c(c1)N(C)C(=O)C21CCN(c2nc3c(c(=O)[nH]2)CCCN3C)CC1
20.2	850	82.7	33	23.1	6.2	3.7	11.1	0.1	4.3	102 (≈ 200 µM)	C[C@@H]1CN(c2cc(F)c3c(c2)N(C)C(=O)C32CCN(c3nc4c(c(=O)[nH]3)CCCN4C)CC2)C[C@H](C)N1
49.1	300	10.5	1.5	2.3	1	2.3	21.3	0.7	6.4	5 (≈ 10.4 µM)	CN1CCCc2c1nc(N1CCC3(CC1)C(=O)N(C)c1cc(N4CCCCC4)cc(F)c13)[nH]c2=O
18.7	740	83.5	56.5	86.4	13.1	6.6	7.9	1.2	6.3	188 (≈ 348 µM)	CN1CCN(CCOc2cc(F)c3c(c2)N(C)C(=O)C32CCN(c3nc4c(c(=O)[nH]3)CCCN4C)CC2)CC1
5.5	530	0.1	4.1	12	3.3	3.6	4.3	0.1	5.7	3 (≈ 6.08 µM)	CN1CCCc2c1nc(N1CCC3(CC1)C(=O)N(CS(C)(=O)=O)c1cc(F)cc(F)c13)[nH]c2=O
33.3	1090	56	18.5	6.1	3.2	1.9	12	2.5	5	101 (≈ 192 µM)	CN1CCCc2c1nc(N1CCC3(CC1)C(=O)N(C)c1cc(OCCN4CCCCC4)cc(F)c13)[nH]c2=O
17.1	330	41.4	1.5	29.1	5.1	5.7	9.2	0.3	2.8	101 (≈ 192 µM)	CN1CCCc2c1nc(N1CCC3(CC1)C(=O)N(C)c1cc(OCCN4CCOCC4)cc(F)c13)[nH]c2=O
13	1170	1.8	1.8	2.7	1.1	2.5	6.3	4.6	20.7	7.4 (≈ 16.8 µM)	CN(C)c1cc(F)c2c(c1)N(C)C(=O)C21CCN(c2nc3c(c(=O)[nH]2)CCCN3C)CC1
12.5	710	42.7	23.9	43.7	11.2	3.9	8.9	0.7	14.5	88.2 (≈ 185 µM)	CN1CCCc2c1nc(N1CCC3(CC1)C(=O)N(CC(O)CO)c1cc(F)cc(F)c13)[nH]c2=O (stereo not drawn)
10.7	220	0	0.3	3.1	1.1	2.8	7.9	3.9	14.4	16 (≈ 38.5 µM)	CN1CCCc2c1nc(N1CCC3(CC1)C(=O)N(C)c1cc(F)cc(F)c13)[nH]c2=O
